Columns and labels:
Conditions in all cases: Compound concentration 1000.0 nM
[1] = target: T1, Testis-specific serine/threonine-protein kinase 1 (Homo sapiens) (UniProt Q9BXA7)
T1 sequence (whole entry): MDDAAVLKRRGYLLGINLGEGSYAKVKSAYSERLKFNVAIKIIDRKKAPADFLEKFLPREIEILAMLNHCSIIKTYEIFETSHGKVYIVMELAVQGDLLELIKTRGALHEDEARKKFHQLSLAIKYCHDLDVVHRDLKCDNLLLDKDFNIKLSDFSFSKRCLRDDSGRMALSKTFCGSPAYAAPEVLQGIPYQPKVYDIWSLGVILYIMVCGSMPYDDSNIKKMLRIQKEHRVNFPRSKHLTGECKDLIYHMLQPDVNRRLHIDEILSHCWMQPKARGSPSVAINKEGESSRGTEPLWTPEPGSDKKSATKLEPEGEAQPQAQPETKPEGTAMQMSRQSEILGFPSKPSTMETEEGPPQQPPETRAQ

[2] = target: T2, Beta-adrenergic receptor kinase 1 (Homo sapiens) (UniProt P25098)
T2 sequence (whole entry): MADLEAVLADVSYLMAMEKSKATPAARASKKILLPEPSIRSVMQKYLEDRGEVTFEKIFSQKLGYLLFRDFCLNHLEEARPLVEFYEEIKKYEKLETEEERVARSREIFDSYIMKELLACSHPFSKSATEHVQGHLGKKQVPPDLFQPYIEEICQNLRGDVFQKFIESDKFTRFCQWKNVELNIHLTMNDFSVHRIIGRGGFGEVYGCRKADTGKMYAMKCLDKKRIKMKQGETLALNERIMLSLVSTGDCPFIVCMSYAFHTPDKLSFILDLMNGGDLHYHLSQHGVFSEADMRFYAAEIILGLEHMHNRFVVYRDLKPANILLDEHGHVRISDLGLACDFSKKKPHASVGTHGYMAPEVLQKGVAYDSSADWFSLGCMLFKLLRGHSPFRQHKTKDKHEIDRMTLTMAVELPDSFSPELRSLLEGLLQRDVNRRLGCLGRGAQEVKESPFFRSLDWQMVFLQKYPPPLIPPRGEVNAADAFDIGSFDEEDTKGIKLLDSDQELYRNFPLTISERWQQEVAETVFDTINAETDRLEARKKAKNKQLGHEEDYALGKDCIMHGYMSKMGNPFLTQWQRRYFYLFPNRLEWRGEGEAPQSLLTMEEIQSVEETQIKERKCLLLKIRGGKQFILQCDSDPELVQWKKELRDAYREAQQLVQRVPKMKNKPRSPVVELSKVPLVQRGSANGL

[3] = target: Serine/threonine-protein kinase MARK1 (Homo sapiens) (UniProt Q9P0L2)
[4] = target: T3, Interleukin-1 receptor-associated kinase 4 (Homo sapiens) (UniProt Q9NWZ3)
T3 sequence (whole entry): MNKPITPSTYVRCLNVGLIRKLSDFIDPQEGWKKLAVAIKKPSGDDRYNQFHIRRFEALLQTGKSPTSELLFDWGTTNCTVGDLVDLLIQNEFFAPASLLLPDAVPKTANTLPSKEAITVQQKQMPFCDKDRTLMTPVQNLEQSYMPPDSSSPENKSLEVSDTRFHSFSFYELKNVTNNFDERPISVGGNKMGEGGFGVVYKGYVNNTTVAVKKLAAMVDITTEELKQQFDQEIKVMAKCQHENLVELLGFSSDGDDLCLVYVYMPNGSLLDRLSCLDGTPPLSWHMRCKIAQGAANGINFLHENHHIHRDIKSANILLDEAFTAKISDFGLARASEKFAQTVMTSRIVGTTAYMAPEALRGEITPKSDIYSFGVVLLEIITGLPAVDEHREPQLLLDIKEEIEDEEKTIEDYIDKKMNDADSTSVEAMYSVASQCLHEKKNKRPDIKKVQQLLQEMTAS

[5] = test system: Phosphatidylinositol 4,5-bisphosphate 3-kinase catalytic subunit alpha isoform (Homo sapiens), P42336 [C420R]
[6] = target: T4, Mitogen-activated protein kinase kinase kinase 5 (Homo sapiens) (UniProt Q99683)
T4 sequence (whole entry): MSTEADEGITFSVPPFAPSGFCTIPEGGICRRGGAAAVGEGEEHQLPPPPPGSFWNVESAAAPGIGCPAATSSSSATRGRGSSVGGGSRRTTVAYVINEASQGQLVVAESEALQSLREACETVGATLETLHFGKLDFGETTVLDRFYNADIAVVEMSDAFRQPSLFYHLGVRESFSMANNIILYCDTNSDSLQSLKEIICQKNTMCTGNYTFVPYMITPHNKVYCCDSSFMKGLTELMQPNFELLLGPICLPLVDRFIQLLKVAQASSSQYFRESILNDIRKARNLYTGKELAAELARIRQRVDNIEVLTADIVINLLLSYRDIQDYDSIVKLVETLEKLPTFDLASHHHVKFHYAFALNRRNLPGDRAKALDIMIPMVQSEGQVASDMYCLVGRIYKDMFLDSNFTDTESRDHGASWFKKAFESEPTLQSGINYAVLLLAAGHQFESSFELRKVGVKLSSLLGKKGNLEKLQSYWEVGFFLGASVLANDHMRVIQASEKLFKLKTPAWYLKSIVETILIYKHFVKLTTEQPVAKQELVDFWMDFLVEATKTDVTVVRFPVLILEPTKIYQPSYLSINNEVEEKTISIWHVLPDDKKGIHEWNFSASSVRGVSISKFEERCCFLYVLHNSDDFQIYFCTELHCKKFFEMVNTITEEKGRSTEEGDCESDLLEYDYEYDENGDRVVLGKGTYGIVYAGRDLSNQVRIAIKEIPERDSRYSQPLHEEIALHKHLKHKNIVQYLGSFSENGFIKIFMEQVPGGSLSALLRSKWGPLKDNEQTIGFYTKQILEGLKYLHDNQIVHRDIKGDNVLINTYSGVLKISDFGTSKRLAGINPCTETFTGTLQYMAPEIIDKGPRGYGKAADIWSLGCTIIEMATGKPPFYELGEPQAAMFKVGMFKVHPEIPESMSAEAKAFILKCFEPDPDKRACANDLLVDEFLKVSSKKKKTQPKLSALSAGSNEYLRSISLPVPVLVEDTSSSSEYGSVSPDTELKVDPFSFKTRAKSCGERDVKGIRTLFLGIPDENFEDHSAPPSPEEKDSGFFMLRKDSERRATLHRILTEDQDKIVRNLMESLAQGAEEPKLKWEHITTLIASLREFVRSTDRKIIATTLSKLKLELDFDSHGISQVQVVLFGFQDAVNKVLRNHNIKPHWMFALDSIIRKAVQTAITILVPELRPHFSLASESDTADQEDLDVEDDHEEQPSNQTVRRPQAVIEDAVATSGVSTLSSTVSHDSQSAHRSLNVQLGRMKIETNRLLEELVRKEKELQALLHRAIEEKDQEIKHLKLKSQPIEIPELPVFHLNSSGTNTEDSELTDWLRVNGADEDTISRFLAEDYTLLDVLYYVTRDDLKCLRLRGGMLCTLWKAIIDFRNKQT

Measured: residual activity

Phosphatidylinositol 4,5-bisphosphate 3-kinase catalytic subunit alpha isoform (Homo sapiens), P42336 [C420R], sequence (P42336 whole entry C420R, canonical isoform): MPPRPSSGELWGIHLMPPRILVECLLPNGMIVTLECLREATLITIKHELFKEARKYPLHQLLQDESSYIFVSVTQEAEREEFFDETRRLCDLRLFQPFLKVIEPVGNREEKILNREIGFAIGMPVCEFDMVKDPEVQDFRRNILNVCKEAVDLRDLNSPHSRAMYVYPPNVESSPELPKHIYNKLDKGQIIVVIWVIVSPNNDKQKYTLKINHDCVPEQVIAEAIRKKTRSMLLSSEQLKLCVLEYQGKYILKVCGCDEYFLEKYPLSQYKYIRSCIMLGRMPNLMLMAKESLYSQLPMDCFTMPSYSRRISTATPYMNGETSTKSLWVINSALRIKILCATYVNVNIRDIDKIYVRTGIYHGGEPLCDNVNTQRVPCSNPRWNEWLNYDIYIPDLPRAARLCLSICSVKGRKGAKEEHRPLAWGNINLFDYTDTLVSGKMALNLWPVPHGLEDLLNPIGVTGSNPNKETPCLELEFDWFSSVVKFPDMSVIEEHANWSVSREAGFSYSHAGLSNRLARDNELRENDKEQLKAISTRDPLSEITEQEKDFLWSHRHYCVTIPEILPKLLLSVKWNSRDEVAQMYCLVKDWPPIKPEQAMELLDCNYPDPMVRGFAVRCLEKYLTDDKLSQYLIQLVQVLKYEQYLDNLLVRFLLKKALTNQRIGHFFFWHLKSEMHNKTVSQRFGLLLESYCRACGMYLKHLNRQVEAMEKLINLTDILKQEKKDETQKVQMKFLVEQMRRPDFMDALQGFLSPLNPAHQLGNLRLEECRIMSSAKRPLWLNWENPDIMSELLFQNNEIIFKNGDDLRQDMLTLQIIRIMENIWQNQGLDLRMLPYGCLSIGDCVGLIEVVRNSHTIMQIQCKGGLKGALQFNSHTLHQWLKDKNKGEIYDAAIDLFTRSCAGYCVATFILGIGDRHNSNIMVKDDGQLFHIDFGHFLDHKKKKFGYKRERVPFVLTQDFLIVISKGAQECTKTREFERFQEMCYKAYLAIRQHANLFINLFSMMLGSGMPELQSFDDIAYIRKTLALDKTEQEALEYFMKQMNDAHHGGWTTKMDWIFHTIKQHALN
Serine/threonine-protein kinase MARK1 (Homo sapiens), sequence (Q9P0L2 whole entry, looked up): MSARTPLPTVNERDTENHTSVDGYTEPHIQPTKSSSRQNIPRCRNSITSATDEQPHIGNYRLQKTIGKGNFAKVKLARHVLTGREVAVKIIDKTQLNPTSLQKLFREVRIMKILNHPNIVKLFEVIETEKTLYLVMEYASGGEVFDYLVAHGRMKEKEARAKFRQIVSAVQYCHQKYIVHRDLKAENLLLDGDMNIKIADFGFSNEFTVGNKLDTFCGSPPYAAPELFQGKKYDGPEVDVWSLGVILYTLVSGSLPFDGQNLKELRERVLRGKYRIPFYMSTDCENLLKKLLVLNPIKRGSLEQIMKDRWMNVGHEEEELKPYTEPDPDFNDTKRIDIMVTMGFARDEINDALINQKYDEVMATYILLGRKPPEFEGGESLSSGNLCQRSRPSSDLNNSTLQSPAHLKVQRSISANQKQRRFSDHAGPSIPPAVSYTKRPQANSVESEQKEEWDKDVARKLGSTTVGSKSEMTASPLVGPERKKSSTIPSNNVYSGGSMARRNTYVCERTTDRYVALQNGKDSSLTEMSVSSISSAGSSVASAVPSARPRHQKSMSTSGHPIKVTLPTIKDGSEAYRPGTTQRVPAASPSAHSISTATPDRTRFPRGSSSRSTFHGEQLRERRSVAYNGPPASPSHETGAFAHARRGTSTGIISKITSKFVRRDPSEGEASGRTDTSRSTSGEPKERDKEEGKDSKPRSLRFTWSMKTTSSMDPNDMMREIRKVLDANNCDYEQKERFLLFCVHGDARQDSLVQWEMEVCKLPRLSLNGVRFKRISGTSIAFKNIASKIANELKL

Cc1nc(C2CCN(C(=O)c3ccc(OC(F)(F)F)cc3N)CC2)c2ncc(N3CCN(C)CC3)cc2n1 [BAY-693]
inactive: [1] 100% | [2] 92% | [3] 100% | [4] 90% | [5] 86% | [6] 99%

CN1CCN(c2cnc3c(C4CCN(C(=O)c5ccc(OC(F)(F)F)cc5N)CC4)ncnc3c2)CC1 [BAY-885]
inactive: [1] 100% | [2] 100% | [3] 100% | [4] 90% | [5] 94% | [6] 92%

From ChEMBL document CHEMBL4507268 (2021)
